pEC50, pIC50: −log10 of the molar value.
How the values were obtained:
[1] = Cytotoxicity against human MT4 cells assessed as reduction in cell viability incubated for 4 days by MTT assay; format: cell-based
[2] = target: Human immunodeficiency virus type 1 reverse transcriptase (Human immunodeficiency virus 1, UniProt Q72547); assay: Inhibition of recombinant HIV-1 reverse transcriptase p66/p51 incubated for 40 mins by picogreen dye based spectrofluorometric assay
[3] = tested on: Human immunodeficiency virus 1; assay: Antiviral activity against HIV-1 harboring reverse transcriptase K103N mutant infected in human MT4 cells assessed as reduction in virus-induced cytopathic effect incubated for 4 days by MTT assay; format: functional, organism-based; conditions: Human immunodeficiency virus 1, MT4, 96 h
[4] = tested on: Human immunodeficiency virus 1; assay: Antiviral activity against HIV-1 harboring reverse transcriptase Y181C mutant infected in human MT4 cells assessed as reduction in virus-induced cytopathic effect incubated for 4 days by MTT assay; format: functional, organism-based; conditions: Human immunodeficiency virus 1, MT4, 96 h
[5] = tested on: Human immunodeficiency virus 1; assay: Antiviral activity against HIV-1 harboring reverse transcriptase E138K mutant infected in human MT4 cells assessed as reduction in virus-induced cytopathic effect incubated for 4 days by MTT assay; format: functional, organism-based; conditions: Human immunodeficiency virus 1, MT4, 96 h
[6] = tested on: Human immunodeficiency virus 1; assay: Antiviral activity against HIV-1 harboring reverse transcriptase L100I mutant infected in human MT4 cells assessed as reduction in virus-induced cytopathic effect incubated for 4 days by MTT assay; format: functional, organism-based; conditions: Human immunodeficiency virus 1, MT4, 96 h

Structure (SMILES)	CC50 at 96 h [1]	pIC50 [2]	also measured
O=C1Nc2ccc(Cl)cc2[C@@](C#CC2CC2)(C(F)(F)F)O1 [EFAVIRENZ]	> 6.34 µM	–	–
Cc1cc(C#N)ccc1-c1ccc(Oc2nc(Nc3ccc(C#N)cc3)nc3ccsc23)cc1C	–	7.57	–
N#Cc1ccc(Nc2nc(Oc3ccc(-c4ccc(C#N)c(Cl)c4)cc3Cl)c3sccc3n2)cc1	–	7.51	–
Cc1cc(-c2ccc(C#N)cc2F)ccc1Oc1nc(Nc2ccc(C#N)cc2)nc2ccsc12	–	7.21	–
Cc1ccnc2c1NC(=O)c1cccnc1N2C1CC1 [NEVIRAPINE]	> 15 µM	–	pEC50 [3]: < 5.02; pEC50 [4]: < 4.82; pEC50 [5]: 6.70; pEC50 [6]: 5.70
Cc1cc(-c2ccc(Oc3nc(Nc4ccc(C#N)cc4)nc4ccsc34)cc2C)ccc1C#N	–	7.38	–
N#Cc1ccc(Nc2nc(Oc3ccc(-c4ccc(C#N)cc4F)cc3)c3sccc3n2)cc1	–	7.19	–
Cc1cc(C#N)cc(C)c1Oc1nc(Nc2ccc(C#N)cc2)nc(N)c1Br [ETRAVIRINE]	> 4.61 µM	–	–

From ChEMBL document CHEMBL4406828, “Conformational restriction design of thiophene-biphenyl-DAPY HIV-1 non-nucleoside reverse transcriptase inhibitors” (Eur J Med Chem, 2019)
